Measurements as given in patent publication US20070082880A1 (priority 2005, published 2007).

Molecular target: T1, human PKCθ full length enzyme (Homo sapiens, UniProt Q04759)
T1 construct: human PKCθ full length enzyme (Panvera Catalog No. P2996); purchased Panvera P2996
Assay: PKCθ IMAP Assay
Format: biochemical
Details: average value when one or more samples were tested; ATP 6 uM, PKCθ 1 nM
Procedure: The materials used include the following: human PKCθ full length enzyme (Panvera Catalog No. P2996); substrate peptide: 5FAM-[…]-OH (Molecular Devices, RP7032); ATP (Sigma Cat # A2383); DTT (Pierce, 20291); 5× kinase reaction buffer (Molecular Devices, R7209); 5× binding buffer A (Molecular Devices, R7282), 5× binding buffer B (Molecular Devices, R7209); IMAP Beads (Molecular Devices, R7284); and 384-well plates (Corning Costar, 3710).
The reaction buffer was prepared by diluting the 5× stock reaction buffer and adding DTT to obtain a concentration of 3.0 mM. The binding buffer was prepared by diluting the 5× binding buffer A. A master mix solution was prepared using a 90% dilution of the reaction buffer containing 2×ATP (12 uM) and 2× peptide ([…]). […] The final concentration of compound was 2× and 10% DMSO. DMSO was added to the rest of the master mix to increase the concentration to 10%. 10 ul of the master mix containing 10% DMSO was added to the rest of the wells on the plate except the 2nd column. 20 ul was transferred from the first column to the 2nd column. The compounds were serially diluted in 2:1 ratio starting from the 2nd column. A 2× (2 nM) PKCθ solution was made in the reaction buffer. 10 ul of the PKCθ solution was added to every well to achieve these final concentrations: PKCθ—1 nM; ATP—6 uM; peptide—100 nM; DMSO—5%. Samples were incubated for 25 minutes at room temperature. The binding reagent was prepared by diluting the beads in 1× binding buffer to 800:1. 50 ul of the binding reagent was added to every well and incubated for 20 minutes. FP was measured using Envision2100 (PerkinElmer Life Sciences). Wells with no ATPs and wells with no enzymes were used as controls.

T1 sequence (Q04759 whole entry): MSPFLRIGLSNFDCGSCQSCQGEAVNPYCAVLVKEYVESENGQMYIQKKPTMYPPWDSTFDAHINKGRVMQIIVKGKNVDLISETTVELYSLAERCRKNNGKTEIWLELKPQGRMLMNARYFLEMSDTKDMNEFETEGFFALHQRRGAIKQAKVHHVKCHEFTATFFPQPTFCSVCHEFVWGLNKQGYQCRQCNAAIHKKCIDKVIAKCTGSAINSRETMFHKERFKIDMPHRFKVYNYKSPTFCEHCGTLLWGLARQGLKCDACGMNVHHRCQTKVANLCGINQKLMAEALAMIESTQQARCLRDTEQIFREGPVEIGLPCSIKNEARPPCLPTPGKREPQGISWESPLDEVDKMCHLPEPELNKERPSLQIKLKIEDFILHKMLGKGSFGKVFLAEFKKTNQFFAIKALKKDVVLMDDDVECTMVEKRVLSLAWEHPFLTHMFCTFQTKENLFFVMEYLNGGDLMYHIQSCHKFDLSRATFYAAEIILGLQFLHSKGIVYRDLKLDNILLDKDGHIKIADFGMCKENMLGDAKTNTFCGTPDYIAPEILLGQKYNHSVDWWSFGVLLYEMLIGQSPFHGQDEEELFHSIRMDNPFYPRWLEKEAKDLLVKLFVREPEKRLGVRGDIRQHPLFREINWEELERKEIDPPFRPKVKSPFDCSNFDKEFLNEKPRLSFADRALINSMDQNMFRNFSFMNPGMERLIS

| Compound | IC50 [nM] |
| --- | --- |
| N#Cc1cnc2sc(-c3cccc(CN4CCN(CCn5ccnc5)CC4)c3)cc2c1Nc1ccc2[nH]ccc2c1 [Compound 175, 2-[3-({4-[2-(1H-imidazol-1-yl)ethyl]piperazin-1-yl}methyl)phenyl]-4-(1H-indol-5-ylamino)thieno[2,3-b]pyridine-5-carbonitrile] | 280 |
| N#Cc1cnc2sc(-c3cccc(CN4CCC(O)CC4)c3)cc2c1Nc1ccc2[nH]ccc2c1 [Compound 176, 2-{3-[(4-hydroxypiperidin-1-yl)methyl]phenyl}-4-(1H-indol-5-ylamino) thieno[2,3-b]pyridine-5-carbonitrile] | 170 |
| N#Cc1cnc2sc(-c3cccc(CN4CCC(CCO)CC4)c3)cc2c1Nc1ccc2[nH]ccc2c1 [Compound 177, 2-(3-{[4-(2-hydroxyethyl)piperidin-1-yl]methyl}phenyl)-4-(1H-indol-5-ylamino)thieno[2,3-b]pyridine-5-carbonitrile] | 170 |
| COCCN1CCN(Cc2cccc(-c3cc4c(Nc5ccc6[nH]ccc6c5)c(C#N)cnc4s3)c2)CC1 [Compound 178, 4-(1H-indol-5-ylamino)-2-(3-{[4-(2-methoxyethyl)piperazin-1-yl]methyl}phenyl)thieno[2,3-b]pyridine-5-carbonitrile] | 300 |
| N#Cc1cnc2sc(-c3cccc(CN4CCN(CCOCCO)CC4)c3)cc2c1Nc1ccc2[nH]ccc2c1 [Compound 181, 2-[3-({4-[2-(2-hydroxyethoxy)ethyl]piperazin-1-yl}methyl)phenyl]-4-(1H-indol-5-ylamino)thieno[2,3-b]pyridine-5-carbonitrile] | 180 |
| CN(C)C(=O)c1cccc(-c2cc3c(Nc4ccc5[nH]ccc5c4)c(C#N)cnc3s2)c1 [Compound 195, 3-[5-cyano-4-(1H-indol-5-ylamino)thieno[2,3-b]pyridine-2-yl]-N,N-dimethylbenzamide] | 420 |
| CN(C)c1cccc(-c2cc3c(Nc4ccc5[nH]ccc5c4)c(C#N)cnc3s2)c1 [Compound 197, 2-[3-(dimethylamino)phenyl]-4-(1H-indol-5-ylamino)thieno[2,3-b]pyridine-5-carbonitrile] | 480 |
| N#Cc1cnc2sc(C#Cc3cnc(N)nc3)cc2c1Nc1ccc2[nH]ccc2c1 [Compound 228, 2-[(2-aminopyrimidin-5-yl)ethynyl]-4-(1H-indol-5-ylamino)thieno[2,3-b]pyridine-5-carbonitrile] | > 1500 |
| CN(C)Cc1ccc(C#Cc2cc3c(Nc4ccc5[nH]ccc5c4)c(C#N)cnc3s2)nc1 [Compound 229, 2-({5-[(dimethylamino)methyl]pyridin-2-yl}ethynyl)-4-(1H-indol-5-ylamino) thieno[2,3-b]pyridine-5-carbonitrile] | 790 |
| CN(C)S(=O)(=O)c1ccc(-c2cc3c(Nc4ccc5[nH]ccc5c4)c(C#N)cnc3s2)cc1 [Compound 231, 4-[5-cyano-4-(1H-indol-5-ylamino)thieno[2,3-b]pyridin-2-yl]-N,N-dimethylbenzenesulfonamide] | 210 |
| N#Cc1cnc2sc(-c3ccc(S(=O)(=O)NCCO)cc3)cc2c1Nc1ccc2[nH]ccc2c1 [Compound 232, 4-[5-cyano-4-(1H-indol-5-ylamino)thieno[2,3-b]pyridin-2-yl]-N-(2-hydroxyethyl)benzenesulfonamide] | 340 |
| N#Cc1cnc2sc(-c3ccc(S(=O)(=O)NC4CCCCC4)cc3)cc2c1Nc1ccc2[nH]ccc2c1 [Compound 233, 4-[5-cyano-4-(1H-indol-5-ylamino)thieno[2,3-b]pyridin-2-yl]-N-cyclohexylbenzenesulfonamide] | 40000 |
| CS(=O)(=O)Nc1ccc(-c2cc3c(Nc4ccc5[nH]ccc5c4)c(C#N)cnc3s2)cc1 [Compound 235, N-{4-[5-cyano-4-(1H-indol-5-ylamino)thieno[2,3-b]pyridin-2-yl]phenyl}methanesulfonamide] | 1200 |
| Cc1c(Nc2c(C#N)cnc3sc(-c4ccccc4S(=O)(=O)N(C)C)cc23)ccc2[nH]ccc12 [Compound 238, 2-{5-cyano-4-[(4-methyl-1H-indol-5-yl)amino]thieno[2,3-b]pyridin-2-yl}-N,N-dimethylbenzenesulfonamide] | 440 |

Stronger by IC50, values ahead:

| IC50 [nM] | Compound |
| --- | --- |
| 150 | N#Cc1cnc2sc(-c3cccc(CNCC4CCCO4)c3)cc2c1Nc1ccc2[nH]ccc2c1 (stereo not shown) [Compound 179, 4-(1H-indol-5-ylamino)-2-(3-{[(tetrahydrofuran-2-ylmethyl)amino]methyl}phenyl) thieno[2,3-b] pyridine-5-carbonitrile] |
| 110 | N#Cc1cnc2sc(-c3cccc(CNCCCN4CCOCC4)c3)cc2c1Nc1ccc2[nH]ccc2c1 [Compound 180, 4-(1H-indol-5-ylamino)-2-(3-{[(3-morpholin-4-ylpropyl)amino]methyl}phenyl)thieno[2,3-b]pyridine-5-carbonitrile] |
| 130 | N#Cc1cnc2sc(-c3cccc(CN4CCCCC4CO)c3)cc2c1Nc1ccc2[nH]ccc2c1 (stereo not shown) [Compound 182] |
| 79 | N#Cc1cnc2sc(-c3cccc(CNCCOCCO)c3)cc2c1Nc1ccc2[nH]ccc2c1 [Compound 183, 2-[3-({[2-(2-hydroxyethoxy)ethyl]amino}methyl)phenyl]-4-(1H-indol-5-ylamino)thieno[2,3-b]pyridine-5-carbonitrile] |
| 53 | N#Cc1cnc2sc(-c3cccc(CO)c3)cc2c1Nc1cccc2[nH]ccc12 [Compound 193, 2-[3-(hydroxymethyl)phenyl]-4-(1H-indol-4-ylamino)thieno[2,3-b]pyridine-5-carbonitrile] |
| 120 | CN(C)C(=O)c1cccc(-c2cc3c(Nc4cccc5[nH]ccc45)c(C#N)cnc3s2)c1 [Compound 194, 3-[5-cyano-4-(1H-indol-4-ylamino)thieno[2,3-b]pyridine-2-yl]-N,N-dimethylbenzamide] |
| 38 | N#Cc1cnc2sc(-c3cccc(CN)c3)cc2c1Nc1ccc2[nH]ccc2c1 [Compound 196, 2-[3-(aminomethyl)phenyl]-4-(1H-indol-5-ylamino)thieno[2,3-b]pyridine-5-carbonitrile] |
| 59 | CNS(=O)(=O)c1ccc(-c2cc3c(Nc4ccc5[nH]ccc5c4)c(C#N)cnc3s2)cc1 [Compound 198, 4-[5-cyano-4-(1H-indol-5-ylamino)thieno[2,3-b]pyridin-2-yl]-N-methylbenzenesulfonamide] |
| 16 | Cc1c(Nc2c(C#N)cnc3sc(-c4cccc(C=O)c4)cc23)ccc2[nH]ccc12 [Compound 201, 2-(3-formylphenyl)-4-[(4-methyl-1H-indol-5-yl)amino]thieno[2,3-b]pyridine-5-carbonitrile] |
| 100 | COc1ccc(C=O)cc1-c1cc2c(Nc3ccc4[nH]ccc4c3)c(C#N)cnc2s1 [Compound 202, 2-(5-formyl-2-methoxyphenyl)-4-(1H-indol-5-ylamino)thieno[2,3-b]pyridine-5-carbonitrile] |
| 37 | CN(C)Cc1cc(-c2cc3c(Nc4ccc5[nH]ccc5c4)c(C#N)cnc3s2)cs1 [Compound 212, 2-{5-[(dimethylamino)methyl]-3-thienyl}-4-(1H-indol-5-ylamino)thieno[2,3-b]pyridine-5-carbonitrile] |
| 84 | CN(C)Cc1cccc(C#Cc2cc3c(Nc4cccc5[nH]ccc45)c(C#N)cnc3s2)n1 [Compound 219, 2-({6-[(dimethylamino)methyl]pyridin-2-yl}ethynyl)-4-(1H-indol-4-ylamino)thieno[2,3-b]pyridine-5-carbonitrile] |
| 14 | Cc1c(Nc2c(C#N)cnc3sc(C#Cc4cccc(CN(C)C)n4)cc23)ccc2[nH]ccc12 [Compound 220, 2-({6-[(dimethylamino)methyl]pyridin-2-yl}ethynyl)-4-(4-methyl-1H-indol-5-ylamino)thieno[2,3-b]pyridine-5-carbonitrile] |
| 9 | CNS(=O)(=O)c1ccc(-c2cc3c(Nc4ccc5[nH]ccc5c4C)c(C#N)cnc3s2)cc1 [Compound 230, 4-{5-cyano-4-[(4-methyl-1H-indol-5-yl)amino]thieno[2,3-b]pyridin-2-yl}-N-methylbenzenesulfonamide] |
| 130 | CS(=O)(=O)c1ccc(-c2cc3c(Nc4ccc5[nH]ccc5c4)c(C#N)cnc3s2)cc1 [Compound 234, 4-(1H-indol-5-ylamino)-2-[4-(methylsulfonyl)phenyl]thieno[2,3-b]pyridine-5-carbonitrile] |
| 20 | Cc1c(Nc2c(C#N)cnc3sc(-c4ccc(S(=O)(=O)N(C)C)cc4)cc23)ccc2[nH]ccc12 [Compound 236, 4-{5-cyano-4-[(4-methyl-1H-indol-5-yl)amino]thieno[2,3-b]pyridin-2-yl}-N,N-dimethylbenzenesulfonamide] |
| 50 | Cc1c(Nc2c(C#N)cnc3sc(-c4cccc(S(=O)(=O)N(C)C)c4)cc23)ccc2[nH]ccc12 [Compound 237, 3-{5-cyano-4-[(4-methyl-1H-indol-5-yl)amino]thieno[2,3-b]pyridin-2-yl}-N,N-dimethylbenzenesulfonamide] |
